# Test results reported in patent US8710237B2, “Small molecule inhibitors of kynurenine-3-monooxygenase” (The J. David Gladstone Institute, priority 2006, dated 2014).
# Marks after values point to notes of the source that are not given here.
# Columns and labels:
# [1] = test system: kynurenine-3-monooxygenase; assay: KMO inhibition, radiometric assay (Erickson et al.); assay type: biochemical; conditions: 10 μM compound
# Protocol: The KMO inhibiting activities of the compounds of the present invention were evaluated using standard methods. See Erickson et al., A Radiometric Assay for Kynurenine 3-Hydroxylase Based on the Release of ^3H2O During Hydroxylation of L-[3,5-^3H]-Kynurenine, Anal. Biochem. 1992, 205, 257-262, the disclosure of which is hereby incorporated by reference.
# The IC50 value is the half maximal inhibitory concentration and represents the concentration of an inhibitor that is required for 50% inhibition of an enzyme activity and the percent inhibition measures the amount of enzyme activity inhibited at a given concentration of compound.
# [2] = test system: R6/2 model of Huntington's disease; assay: Survival in a mouse model of Huntington's disease (FIG. 13); assay type: in vivo; conditions: R6/2 mice
# Source text: The structure of the compound M is
# 3-HK in the brain = assay: In vivo comparison: 3-HK in the brain after oral administration (FIG. 12)
# Source text: The structure of the compound 61-8048 is as below:
melting point,% inhibition at 10 μM [1],Structure (SMILES),also measured
136 °C,,COc1ccc(S(=O)(=O)Nc2nc(-c3cccc([N+](=O)[O-])c3)c(CN3CCSCC3)s2)cc1OC,
,85%,"COC(=O)N(c1nc(-c2cccc([N+](=O)[O-])c2)cs1)S(=O)(=O)c1ccc(OC)c(OC)c1 [W, 3,4-dimethoxy-N-[4-(3-nitrophenyl)thiazol-2-yl]-N-(methylcarboxylate)benzenesulfonamide]",
215 to 217 °C,6* %,"COc1ccc(S(=O)(=O)Nc2nc(-c3cccc([N+](=O)[O-])c3)c(CN3CCN(C)CC3)s2)cc1OC [E, 3,4-dimethoxy-N-[4-(3-nitrophenyl)-5-((4-methylpiperazin-1-yl)methyl)-1,3-thiazole-2-yl]benzenesulfonamide]",
,84%,"CCOC(=O)N(c1nc(-c2cccc([N+](=O)[O-])c2)cs1)S(=O)(=O)c1ccc(OC)c(OC)c1 [V, 3,4-dimethoxy-N-[4-(3-nitrophenyl)thiazol-2-yl]-N-(ethylcarboxylate)benzenesulfonamide]",
,24%,"COc1ccc(S(=O)(=O)Nc2nc(-c3cccc([N+](=O)[O-])c3)c(CN3CCCCC3)s2)cc1OC [C, 3,4-dimethoxy-N-[4-(3-nitrophenyl)-5-(piperidin-1-ylmethyl)-1,3-thiazole-2-yl]benzenesulfonamide]",
,52%,"COc1ccc(S(=O)(=O)N(C)c2nc(-c3cccc([N+](=O)[O-])c3)cs2)cc1OC [T, 3,4-dimethoxy-N-[4-(3-nitrophenyl)thiazol-2-yl]-N-(methyl)benzenesulfonamide]",
143 °C,64%,"COc1ccc(S(=O)(=O)Nc2nc(-c3cccc([N+](=O)[O-])c3)c(CN3CCOCC3)s2)cc1OC [D, 3,4-dimethoxy-N-[4-(3-nitrophenyl)-5-morpholinomethyl-1,3-thiazole-2-yl]benzenesulfonamide]",
165 to 168 °C,74%,"CCN(CC)Cc1sc(NS(=O)(=O)c2ccc(OC)c(OC)c2)nc1-c1cccc([N+](=O)[O-])c1 [F, 3,4-dimethoxy-N-[4-(3-nitrophenyl)-5-(diethylamino)methyl-1,3-thiazole-2-yl]benzenesulfonamide]",
203 °C,58%,"COc1ccc(S(=O)(=O)Nc2nc(-c3cccc([N+](=O)[O-])c3)c(CN(C)C)s2)cc1OC [A, 3,4-dimethoxy-N-[4-(3-nitrophenyl)-5-dimethylaminomethyl-1,3-thiazole-2-yl]benzenesulfonamide]",
,,"COc1ccc(S(=O)(=O)Nc2nc(-c3cccc([N+](=O)[O-])c3)cs2)cc1OC [Compound 61-8048, 3,4-Dimethoxy-N-[4-(3-nitrophenyl)thiazol-2-yl]benzenesulfonamide, reference compound]","effect on survival ([2]; 100 mg/kg/day, not shown in the figure): did not have a significant effect on survival; decrease of 3-HK in the brain (3-HK in the brain): does not decrease"
143 to 145 °C,73%,"CCCN(C)Cc1sc(NS(=O)(=O)c2ccc(OC)c(OC)c2)nc1-c1cccc([N+](=O)[O-])c1 [G, 3,4-dimethoxy-N-[4-(3-nitrophenyl)-5-(methylpropylamino)methyl-1,3-thiazole-2-yl]benzenesulfonamide]",
,,COc1ccc(S(=O)(=O)N(CN2CCCCC2)c2nc(-c3cccc([N+](=O)[O-])c3)cs2)cc1OC [Compound M],magnitude of the effect of protection (survival) [2]: equal to or greater to that reported for any single agent administered in this model
,81%,"CCOC(=O)CN(c1nc(-c2cccc([N+](=O)[O-])c2)cs1)S(=O)(=O)c1ccc(OC)c(OC)c1 [U, 3,4-dimethoxy-N-[4-(3-nitrophenyl)thiazol-2-yl]-N-[(ethylcarboxylate)methyl]benzenesulfonamide]",
198 to 200 °C,9* %,"COc1ccc(S(=O)(=O)Nc2nc(-c3cccc([N+](=O)[O-])c3)c(CN3CCCC3)s2)cc1OC [B, 3,4-dimethoxy-N-[4-(3-nitrophenyl)-5-(pyrrolidin-1-ylmethyl)-1,3-thiazole-2-yl]benzenesulfonamide]",
